From patent US12419837B2, “Liposomal composition containing mild acidic active agent” (TAIWAN LIPOSOME COMPANY, LTD., priority 2016, dated 2025)
Where two headings read alike, the source gives them in different places.

Assays:
Solubility = type: physicochemical; settings: PGE1 as API
[1] = cited from earlier work

CCCCC[C@H](O)/C=C/[C@H]1[C@H](O)CC(=O)[C@@H]1CCCCCCC(=O)O [PGE1, Prostaglandin E1]
solubility in tert-Butyl alcohol (TBA) (Solubility): soluble | solubility in water (Solubility): water-insoluble | half life in human body ([1]; human body (b5)): about 30 seconds | half life in human body ([1]; human body): 0.5 min and 10 min
